Assay: solvent given as SMILES

CCCCCCN(CCCCCC)c1ccc(C#Cc2ccc(-c3ccc(C#Cc4ccc(N(CCCCCC)CCCCCC)cc4)cc3)cc2)cc1
absorption maximum (in Cc1ccccc1): 374 nm

N#Cc1cnc(-c2c3ccccc3cc3ccccc23)nc1
absorption maximum (in CCO): 382 nm | absorption maximum (in ClCCl): 385 nm

CCCc1ccc(C#Cc2cc(C#Cc3ccc(CCC)cc3)c3ccc4c(C#Cc5ccc(N(C)C)cc5)cc(C#Cc5ccc(CCC)cc5)c5ccc2c3c54)cc1
absorption maximum (in ClCCl): 473 nm

c1ccc(-c2cc(-c3ccccc3)cc(-c3ccccc3)c2)cc1
absorption maximum (in C1COCCO1): 250 nm

COc1ccc(C#Cc2nc3ccccc3nc2-c2cn(C)c3ccccc23)cc1
absorption maximum (in C1CCOC1): 408 nm | absorption maximum (in CC#N): 407 nm | absorption maximum (in CC(C)=O): 408 nm | absorption maximum (in CC(C)O): 415 nm | absorption maximum (in CCO): 415 nm | absorption maximum (in CCOC(C)=O): 405 nm | absorption maximum (in CO): 415 nm | absorption maximum (in Cc1ccccc1): 407 nm | absorption maximum (in ClCCl): 408 nm

CC[N+]1(CC)CN2C(=N1)C(C(=O)O)=Cc1cc(OC)c(OC)cc12
absorption maximum (in O): 392 nm

Nc1cc2nc3cc(Cl)c(Cl)cc3nc2cc1N
absorption maximum (in CCO): 442 nm

CCCCCCN(CCCCCC)c1ccc(C#Cc2ccc(C(F)(F)F)cc2)cc1
absorption maximum (in CO): 356 nm | absorption maximum (in ClCCl): 362 nm

N#Cc1cc2ccc(O)cc2oc1=O
absorption maximum (in C1CCCCC1): 361 nm | absorption maximum (in C1CCOC1): 355 nm | absorption maximum (in CC#N): 352 nm | absorption maximum (in CCOC(C)=O): 356 nm | absorption maximum (in CS(C)=O): 351 nm | absorption maximum (in ClC(Cl)Cl): 359 nm | absorption maximum (in O): 355 nm

CC[n+]1ccc2ccccc2c1/C=C/c1c([O-])ccc2ccc(=O)oc12
absorption maximum (in C1CCOC1): 629.86 nm | absorption maximum (in CC#N): 591.03 nm | absorption maximum (in CC(C)=O): 603.44 nm | absorption maximum (in CO): 535.64 nm | absorption maximum (in CS(C)=O): 593.42 nm | absorption maximum (in Cc1ccccc1): 655.01 nm | absorption maximum (in ClC(Cl)Cl): 614.58 nm | absorption maximum (in ClCCl): 614.58 nm | absorption maximum (in O): 491.71 nm

Cc1cc2ccccc2c2c1c1ccccc1n2-c1ccc(N(c2ccccc2)c2ccccc2)cc1
absorption maximum (in ClCCl): 304 nm

CC(C)Nc1cc(F)c(C(=O)c2cc(F)c(NC(C)C)cc2F)cc1F
absorption maximum (in CCO): 357 nm

CC(=O)N(Cc1ccccn1)c1c2ccccc2c2c3c(cccc13)C(=O)N(Cc1ccccn1)C2=O
absorption maximum (in C1CCOC1): 436 nm | absorption maximum (in CCCCCC): 432 nm | absorption maximum (in CCO): 437 nm | absorption maximum (in Cc1ccccc1): 437 nm | absorption maximum (in ClCCl): 439 nm

Fc1ccc(/C=C/c2nc3c4ccccc4c4ccccc4c3o2)cc1
absorption maximum (in CC#N): 363 nm

COc1ccc(C2=C(C)C3=C(c4c(-c5ccccn5)nc5ccccn45)c4c(C)cc(C)n4[B-](F)(F)[N+]3=C2C)cc1
absorption maximum (in ClCCl): 535 nm

N#Cc1c(-c2ccccc2)cc(-c2ccccc2)[nH]c1=S
absorption maximum (in C1COCCO1): 446 nm | absorption maximum (in CC#N): 434 nm | absorption maximum (in CCCCO): 441 nm | absorption maximum (in CCCO): 431 nm | absorption maximum (in CCO): 407 nm | absorption maximum (in CCOC(C)=O): 430 nm | absorption maximum (in CCOCC): 451 nm | absorption maximum (in CN(C)C=O): 439 nm

c1ccc2c(C3=C(c4cccc5ccccc45)c4cccc5c4c(cc4nc6ccccc6nc45)O3)cccc2c1
absorption maximum (in ClCCl): 486 nm

O=C1c2ccccc2C2=Nc3cccc[n+]3[B-](F)(F)N12
absorption maximum (in ClCCl): 361 nm

O=P1(c2ccccc2)c2ccccc2-c2sc3ccccc3c21 (stereo unspecified)
absorption maximum (in C1CCCCC1): 327 nm | absorption maximum (in CC#N): 327 nm | absorption maximum (in CCO): 329 nm | absorption maximum (in ClCCl): 329 nm

COc1ccc(-c2pc3ccccc3s2)cc1 (stereo unspecified)
absorption maximum (in CC#N): 347 nm

O=C(O)CCCc1ccc2ccc3cccc4ccc1c2c34
absorption maximum (in CO): 375 nm

COc1cccc(C2=C3C=C(/C=C/C(=O)OC(C)(C)C)C=[N+]3[B-](F)(F)n3cccc32)c1
absorption maximum (in ClCCl): 539 nm

Cc1cc(C)c(B(c2c(C)cc(C)cc2C)c2cc3cc(N(C)C)c4ccccc4c3c3c2ccc2ccccc23)c(C)c1
absorption maximum (in C1CCCCC1): 430 nm | absorption maximum (in C1CCOC1): 431 nm | absorption maximum (in CC#N): 429 nm | absorption maximum (in ClC(Cl)Cl): 431 nm | absorption maximum (in c1ccccc1): 433 nm

COc1cc(C(=O)c2c(C)c3ccc4cccc5c6cccc7ccc2c(c76)c3c45)cc(OC)c1OC
absorption maximum (in ClCCl): 391 nm

Nc1ccc2cn[nH]c2c1
absorption maximum (in C1CCCCC1): 296 nm

O=c1c2ccccc2n(-c2ccc(-c3ccc(-n4c5ccccc5c5ccccc54)cc3)cc2)c2ccccc12
absorption maximum (in ClCCl): 394 nm

CN(C)CCNc1ccc([N+](=O)[O-])cc1[N+](=O)[O-]
absorption maximum (in C1CCCCC1): 334 nm | absorption maximum (in C1CCOC1): 352 nm | absorption maximum (in C1COCCO1): 348 nm | absorption maximum (in CC#N): 352 nm | absorption maximum (in CC(C)=O): 352 nm | absorption maximum (in CCCCCC): 330 nm | absorption maximum (in CCO): 348 nm | absorption maximum (in CCOC(C)=O): 347 nm | absorption maximum (in CN(C)C=O): 358 nm | absorption maximum (in CO): 350 nm | absorption maximum (in CS(C)=O): 363 nm | absorption maximum (in Cc1ccccc1): 347 nm | absorption maximum (in ClC(Cl)Cl): 350 nm | absorption maximum (in ClCCl): 352 nm

CC1(C)C(/C=C/C2=C(Oc3ccc(CCN=C=S)cc3F)C(=C/C=C3/N(CCCS(=O)(=O)[O-])c4ccccc4C3(C)C)/CCC2)=[N+](CCCS(=O)(=O)[O-])c2ccccc21
absorption maximum (in CO): 768 nm

Nc1ccc(N2C(=O)c3ccc4c5ccc6c7c(ccc(c8ccc(c3c48)C2=O)c75)C(=O)N(c2ccc(N)cc2)C6=O)cc1
absorption maximum (in CN(C)C=O): 537 nm

COc1ccc(C2=C3C=C(/C=C/C(=O)OC(C)(C)C)C=[N+]3[B-](F)(F)n3cccc32)cc1
absorption maximum (in ClCCl): 536 nm

c1ccc(-c2c3ccccc3c(-c3ccc4ccccc4c3)c3ccccc23)nc1
absorption maximum (in ClCCl): 375 nm

Cc1ccc2nc3c(=O)[nH]c(=O)[nH]c3nc2c1C
absorption maximum (in CC#N): 375 nm

CCN(CC)c1ccc2cc(-c3cn4cc(OC)ccc4n3)c(=O)oc2c1
absorption maximum (in ClC(Cl)Cl): 434 nm

COc1cc(C=C(C#Cc2ccccc2)C#Cc2ccccc2)c(OC)cc1C=C(C#Cc1ccccc1)C#Cc1ccccc1
absorption maximum (in ClC(Cl)Cl): 455 nm

CCOC(=O)c1cc(C(=O)OCC)c2cc(C(=O)O)ccc2n1
absorption maximum (in CCO): 316 nm

C(=C\c1ccncn1)/c1ccc(N(c2ccccc2)c2ccc(/C=C/c3ccncn3)cc2)cc1
absorption maximum (in ClCCl): 422 nm

COc1ccc(C(=O)/C=C2\C(=O)Nc3ccccc32)c(OC)c1
absorption maximum (in C1CCCCC1): 334 nm | absorption maximum (in C1COCCO1): 336 nm | absorption maximum (in CC#N): 328 nm | absorption maximum (in CC(C)(C)O): 338 nm | absorption maximum (in CC(C)O): 338 nm | absorption maximum (in CCCCCC): 333 nm | absorption maximum (in CCCCO): 340 nm | absorption maximum (in CCOC(C)=O): 334 nm | absorption maximum (in CN(C)C=O): 338 nm | absorption maximum (in CO): 343 nm | absorption maximum (in ClCCl): 331 nm | absorption maximum (in O): 330 nm

[NH3+]c1cc([NH3+])cc(-c2[nH+]c3ccccc3s2)c1
absorption maximum (in O): 328 nm

COc1ccc2c(c1)c1cc(OC)ccc1n2-c1nc2ccccc2nc1-n1c2ccc(OC)cc2c2cc(OC)ccc21
absorption maximum (in Cc1ccccc1): 437 nm

CCCC1=Cc2nc1ccc1[nH]c(cc1CCO)c1nc(ccc3[nH]c2cc3CCC)C(CCO)=C1
absorption maximum (in Cc1ccccc1): 638 nm

O=C1OC(=O)c2ccc(N(c3ccccc3)c3ccc4ccc5cccc6ccc3c4c56)c3cccc1c23
absorption maximum (in C1CCOC1): 455 nm | absorption maximum (in CCCCCC): 447 nm | absorption maximum (in ClCCl): 465 nm | absorption maximum (in c1ccccc1): 457 nm

COc1ccc(C2=C(c3ccc(OC)cc3)C(C)(C)c3c2ccc2ccccc32)cc1
absorption maximum (in C1CCCCC1): 336 nm
